# Data reported in US20130190309A1, “PHTHALAZINONE AND RELATED ANALOGS AS SIRTUIN MODULATORS” (priority 2009, published 2013).
# Target: T1, SIRT1 (Homo sapiens, UniProt Q96EB6)
# T1 sequence (Q96EB6 1-747): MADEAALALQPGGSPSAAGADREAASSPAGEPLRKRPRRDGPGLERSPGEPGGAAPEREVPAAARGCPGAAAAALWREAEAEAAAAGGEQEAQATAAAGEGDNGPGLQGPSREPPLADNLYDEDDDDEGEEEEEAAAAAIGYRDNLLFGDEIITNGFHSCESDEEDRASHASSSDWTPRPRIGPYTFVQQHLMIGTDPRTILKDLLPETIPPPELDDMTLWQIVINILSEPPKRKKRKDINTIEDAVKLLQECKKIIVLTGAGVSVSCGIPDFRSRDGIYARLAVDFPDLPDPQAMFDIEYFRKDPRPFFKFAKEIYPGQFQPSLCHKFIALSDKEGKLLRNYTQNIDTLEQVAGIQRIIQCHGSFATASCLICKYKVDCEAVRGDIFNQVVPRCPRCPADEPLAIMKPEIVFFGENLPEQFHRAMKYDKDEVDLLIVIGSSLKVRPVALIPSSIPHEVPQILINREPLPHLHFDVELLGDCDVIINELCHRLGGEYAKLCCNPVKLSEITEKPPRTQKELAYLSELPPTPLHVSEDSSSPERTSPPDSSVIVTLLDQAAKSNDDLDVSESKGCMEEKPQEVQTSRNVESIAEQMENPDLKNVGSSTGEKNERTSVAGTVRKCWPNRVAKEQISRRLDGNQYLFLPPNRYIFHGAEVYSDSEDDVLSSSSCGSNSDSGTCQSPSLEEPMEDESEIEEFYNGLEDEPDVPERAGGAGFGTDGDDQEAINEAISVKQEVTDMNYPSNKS
# Experiment: Mass spectrometry based SIRT1 deacetylase activation assay
# Type: biochemical
# Details: for Emax: 25 min, percent maximum fold activation of SIRT1, read-out: SIRT1 % FOLD ACT.; for EC1.5 (concentration giving 150% activation): concentration of test compound that results in 150% activation of SIRT1
# From the text: A mass spectrometry based assay was used to identify modulators of SIRT1 activity. The mass spectrometry based assay utilizes a peptide having 20 amino acid residues as follows: Ac-EE-K(biotin)-GQSTSSHSK(Ac)NleSTEG-K(5TMR)-EE-NH2 (SEQ ID NO: 1) wherein K(Ac) is an acetylated lysine residue and Nle is a norleucine. The peptide is labeled with the fluorophore 5TMR (excitation 540 nm/emission 580 nm) at the C-terminus. The sequence of the peptide substrate is based on p53 with several modifications. In addition, the methionine residue naturally present in the sequence was replaced with the norleucine because the methionine may be susceptible to oxidation during synthesis and purification.
# The mass spectrometry assay is conducted as follows: 0.5 μM peptide substrate and 120 μM βNAD^+ is incubated with 10 nM SIRT1 for 25 minutes at 25° C. in a reaction buffer (50 mM Tris-acetate pH 8, 137 mM NaCl, 2.7 mM KCl, 1 mM MgCl2, 5 mM DTT, 0.05% BSA). Test compounds may be added to the reaction as described above. The SirT1 gene is cloned into a T7-promoter containing vector and transformed into BL21(DE3). After the 25 minute incubation with SIRT1, 10 μL of 10% formic acid is added to stop the reaction. Reactions are sealed and frozen for later mass spec analysis. Determination of the mass of the substrate peptide allows for precise determination of the degree of acetylation (i.e. starting material) as compared to deacetylated peptide (product).
# A control for inhibition of sirtuin activity is conducted by adding 1 μL of 500 mM nicotinamide as a negative control at the start of the reaction (e.g., permits determination of maximum sirtuin inhibition). A control for activation of sirtuin activity is conducted using 10 nM of sirtuin protein, with 1 μL of DMSO in place of compound, to determine the amount of deacetylation of the substrate at a given timepoint within the linear range of the assay. This timepoint is the same as that used for test compounds and, within the linear range, the endpoint represents a change in velocity.
# For the above assay, SIRT1 protein was expressed and purified as follows. The SirT1 gene was cloned into a T7-promoter containing vector and transformed into BL21(DE3). The protein was expressed by induction with 1 mM IPTG as an N-terminal His-tag fusion protein at 18° C. overnight and harvested at 30,000×g. Cells were lysed with lysozyme in lysis buffer (50 mM Tris-HCl, 2 mM Tris[2-carboxyethyl]phosphine (TCEP), 10 μM ZnCl2, 200 mM NaCl) and further treated with sonication for 10 min for complete lysis. The protein was purified over a Ni-NTA column (Amersham) and fractions containing pure protein were pooled, concentrated and run over a sizing column (Sephadex S200 26/60 global). The peak containing soluble protein was collected and run on an Ion-exchange column (MonoQ). Gradient elution (200 mM-500 mM NaCl) yielded pure protein. This protein was concentrated and dialyzed against dialysis buffer (20 mM Tris-HCl, 2 mM TCEP) overnight. The protein was aliquoted and frozen at −80° C. until further use.
# Sirtuin modulating compounds that activated SIRT1 were identified using the assay described above and are shown below in Table 1. The EC1.5 values represent the concentration of test compounds that result in 150% activation of SIRT1. The EC1.5 values for the activating compounds are represented by A (EC1.5 <5 μM), B (EC1.5 5-50 μM), or C (EC1.5 >50 μM). The percent maximum fold activation is represented by A (Fold activation >150%) or B (Fold Activation <150%).
SMILES,Emax [%],EC1.5 (concentration giving 150% activation) [µM]
O=C(Nc1cccc2cnn(-c3cccc(C(F)(F)F)c3)c(=O)c12)c1cscn1 [Compound 102],< 150,< 5
O=C(Nc1cccc2c1C(=O)N(c1cccc(C(F)(F)F)c1)CC2)c1cscn1 [Compound 100],> 150,5 to 50
"O=C(Nc1cccc2cnn(-c3cccc(C(F)(F)F)c3)c(=O)c12)c1cnccn1 [Compound 103, N-(4-oxo-3-(3-(trifluoromethyl)phenyl)-3,4-dihydrophthalazin-5-yl)pyrazine-2-carboxamide]",> 150,5 to 50
O=C(Nc1cccc2cnn(-c3cccc(C(F)(F)F)c3)c(=O)c12)C1CCOCC1 [Compound 104],,> 50
"O=C(Nc1cccc2cnn(-c3cccc(C(F)(F)F)c3)c(=O)c12)c1cccc(OCC(O)CO)n1 (centres unmarked) [Compound 105, 6-(2,3-dihydroxypropoxy)-N-(4-oxo-3-(3-(trifluoromethyl)phenyl)-3,4-dihydrophthalazin-5-yl)picolinamide]",> 150,< 5
"O=C(Nc1cccc2cnn(-c3cccc(OC(F)(F)F)c3)c(=O)c12)c1cccc(CN2CCOCC2)n1 [Compound 108, 6-(morpholinomethyl)-N-(4-oxo-3-(3-(trifluoromethoxy)phenyl)-3,4-dihydrophthalazin-5-yl)picolinamide]",> 150,< 5

# More lines, now with the values ahead:
Emax [%],EC1.5 (concentration giving 150% activation) [µM],SMILES
> 150,< 5,"O=C(Nc1cccc2cnn(-c3cccc(OC(F)(F)F)c3)c(=O)c12)c1cccc(OCC(O)CO)n1 (centres unmarked) [Compound 107, 6-(2,3-dihydroxypropoxy)-N-(4-oxo-3-(3-(trifluoromethoxy)phenyl)-3,4-dihydrophthalazin-5-yl)picolinamide]"
> 150,< 5,"O=C(Nc1cccc2cnn(-c3cccc(C(F)(F)F)c3)c(=O)c12)c1cccc(CN2CCOCC2)n1 [Compound 106, 6-(morpholinomethyl)-N-(4-oxo-3-(3-(trifluoromethyl)phenyl)-3,4-dihydrophthalazin-5-yl)picolinamide]"
> 150,5 to 50,"O=C(Nc1cccc2c1C(=O)N(c1cccc(C(F)(F)F)c1)CC2)c1cnccn1 [Compound 101, N-(1-oxo-2-(3-(trifluoromethyl)phenyl)-1,2,3,4-tetrahydroisoquinolin-8-yl)pyrazine-2-carboxamide]"
